Measurements taken from publication PMC4499133, “ATP-dependent motor activity of the transcription termination factor Rho from Mycobacterium tuberculosis” (Nucleic Acids Research, 2015).

Target: T1, MtbRho (transcription termination factor Rho) (Mycobacterium tuberculosis, UniProt P9WHF3)
T1 construct: WT MtbRho, N-terminal His tag, hexamer
Test: biochemical

T1 sequence (P9WHF3 whole entry): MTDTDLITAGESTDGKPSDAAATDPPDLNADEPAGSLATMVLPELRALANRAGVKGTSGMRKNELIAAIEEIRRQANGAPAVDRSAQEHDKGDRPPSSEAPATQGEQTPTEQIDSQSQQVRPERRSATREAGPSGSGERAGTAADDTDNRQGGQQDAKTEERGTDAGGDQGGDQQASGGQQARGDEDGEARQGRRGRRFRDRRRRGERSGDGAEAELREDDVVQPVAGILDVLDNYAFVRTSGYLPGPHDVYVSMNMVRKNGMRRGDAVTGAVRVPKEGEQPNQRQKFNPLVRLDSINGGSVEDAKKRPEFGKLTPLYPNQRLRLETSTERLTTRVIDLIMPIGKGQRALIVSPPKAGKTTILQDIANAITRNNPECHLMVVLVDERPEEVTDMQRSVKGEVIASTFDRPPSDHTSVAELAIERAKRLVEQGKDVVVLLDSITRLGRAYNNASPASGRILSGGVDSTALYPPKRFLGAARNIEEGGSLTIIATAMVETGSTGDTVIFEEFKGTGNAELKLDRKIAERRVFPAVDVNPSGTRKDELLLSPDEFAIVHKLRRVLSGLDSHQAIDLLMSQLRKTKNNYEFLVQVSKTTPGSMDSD

`C=C1CCO[C@]2([C@@H](O)[C@@](C)(O)CO)NC(=O)[C@@]1(O)NC2=O` [BCM, bicyclomycin] was tested, and the IC50 was 157 ± 20 µM.
